Our source for the Ki values is ChEMBL document CHEMBL1142752, “Synthesis and antiviral activities of novel N-alkoxy-arylsulfonamide-based HIV protease inhibitors” (Bioorg Med Chem Lett, 2005).

The assay addresses Human immunodeficiency virus type 1 protease (Human immunodeficiency virus 1, UniProt Q72874). Briefly: Inhibition constant against HIV-1 protease.

As a reminder, the Ki is a dissociation constant, usually derived from enzyme kinetics or from competition with a known ligand. A high value points to a looser hold on the target. Compound `Nc1ccc(S(=O)(=O)N(C[C@@H](O)[C@H](Cc2ccccc2)NC(=O)O[C@H]2CO[C@H]3OCC[C@H]32)OC2CCCCC2)cc1` registered a Ki of 0.018 nM.
In the case of `O=C(N[C@@H](Cc1ccccc1)[C@H](O)CN(OC1CCCC1)S(=O)(=O)c1ccc2c(c1)OCCO2)O[C@H]1CO[C@H]2OCC[C@H]21`, the Ki is below 0.005 nM.
The compound `COc1ccc(S(=O)(=O)N(C[C@@H](O)[C@H](Cc2ccccc2)NC(=O)O[C@@H]2COC3OCCC32)OC2CCCC2)cc1` (some centres not stated) displayed an inhibition constant (Ki) below 0.005 nM.
The result for `Nc1ccc(S(=O)(=O)N(C[C@@H](O)[C@H](Cc2ccccc2)NC(=O)O[C@H]2CO[C@H]3OCC[C@H]32)OC2CCCC2)cc1` reads below 0.005 nM.
The result for `CCC(CC)ON(C[C@@H](O)[C@H](Cc1ccccc1)NC(=O)OC(C)(C)C)S(=O)(=O)c1ccc(OC)cc1` reads 3.2 nM.
Turning to `COc1ccc(S(=O)(=O)N(C[C@@H](O)[C@H](Cc2ccccc2)NC(=O)OC(C)(C)C)OCC(C)C)cc1`, the inhibition constant (Ki) is 4 nM.
`COc1ccc(S(=O)(=O)N(C[C@@H](O)[C@H](Cc2ccccc2)NC(=O)OC2CCOC2)OC2CCCC2)cc1` (some centres not stated) returned a Ki of 0.19 nM.
The result for `COc1ccc(S(=O)(=O)N(C[C@@H](O)[C@H](Cc2ccccc2)NC(=O)OC(C)(C)C)OCC2CCCCC2)cc1` reads 12 nM; that for `Nc1cccc(S(=O)(=O)N(C[C@@H](O)[C@H](Cc2ccccc2)NC(=O)O[C@H]2CO[C@H]3OCC[C@H]32)OC2CCCC2)c1`, below 0.005 nM; that for `COc1ccc(S(=O)(=O)N(CC(O)C(Cc2ccccc2)NC(=O)[C@H](CC(N)=O)NC(=O)c2ccc3ccccc3n2)OC2CCCC2)cc1` (some centres not stated), below 0.005 nM.
`O=C(N[C@@H](Cc1ccccc1)[C@H](O)CN(OC1CCCCC1)S(=O)(=O)c1ccc2c(c1)OCO2)O[C@H]1CO[C@H]2OCC[C@H]21` had an inhibition constant (Ki) below 0.005 nM.
`COc1ccc(S(=O)(=O)N(C[C@@H](O)[C@H](Cc2ccccc2)NC(=O)OC(C)(C)C)OC2CCCCC2)cc1` returned a Ki of 2.8 nM. That is a single-digit nanomolar value.
`O=C(N[C@@H](Cc1ccccc1)[C@H](O)CN(OC1CCCCC1)S(=O)(=O)c1ccc(O)cc1)O[C@H]1CO[C@H]2OCC[C@H]21`: the Ki was below 0.005 nM.
The compound `COc1ccc(S(=O)(=O)N(C[C@@H](O)[C@H](Cc2ccccc2)NC(=O)OC(C)(C)C)OC(C)C)cc1` [ENTRY A] registered an inhibitory constant (Ki) of 14 nM.
Compound `O=C(N[C@@H](Cc1ccccc1)[C@H](O)CN(OC1CCCC1)S(=O)(=O)c1ccc(O)cc1)O[C@H]1CO[C@H]2OCC[C@H]21` gave an inhibition constant (Ki) below 0.005 nM.
The compound `O=C(N[C@@H](Cc1ccccc1)[C@H](O)CN(OC1CCCCC1)S(=O)(=O)c1ccc2c(c1)OCCO2)O[C@H]1CO[C@H]2OCC[C@H]21` registered a Ki below 0.005 nM.
For the compound `COc1ccc(S(=O)(=O)N(C[C@@H](O)[C@H](Cc2ccccc2)NC(=O)OC(C)(C)C)Oc2ccccc2)cc1`, the inhibitory constant (Ki) worked out at 22 nM.
Compound `COc1ccc(S(=O)(=O)N(C[C@@H](O)[C@H](Cc2ccccc2)NC(=O)OC(C)(C)C)OC2CCCC2)cc1` gave an inhibition constant Ki of 1.6 nM.
Compound `Nc1cccc(S(=O)(=O)N(C[C@@H](O)[C@H](Cc2ccccc2)NC(=O)O[C@H]2CO[C@H]3OCC[C@H]32)OC2CCCCC2)c1` showed a Ki of 0.005 nM.
`COC(=O)N[C@H](C(=O)N[C@@H](Cc1ccccc1)[C@H](O)CN(OC1CCCC1)S(=O)(=O)c1ccc(OC)cc1)C(C)(C)C`: the Ki turned out to be 0.09 nM. Against the preceding compound, the Ki is about 18-fold higher.
`O=C(N[C@@H](Cc1ccccc1)[C@H](O)CN(OC1CCCC1)S(=O)(=O)c1ccc2c(c1)OCO2)O[C@H]1CO[C@H]2OCC[C@H]21` displayed a Ki below 0.005 nM.
To `COc1ccc(S(=O)(=O)N(C[C@@H](O)[C@H](Cc2ccccc2)NC(=O)O[C@H]2CO[C@H]3OCC[C@H]32)OC2CCCC2)cc1` belongs below 0.005 nM.
